The values that follow come from US20250170114A1, “METHODS OF TREATMENT USING T-TYPE CALCIUM CHANNEL MODULATORS” (Praxis Precision Medicines, Inc., priority 2022, published 2025).

Holding throughout (format): in vivo, rat
For assay [1], the system named is harmaline-induced tremor in male SD rats. As to the kind of experiment: Tremor assessment (tremor score 0-4) with harmaline in SD rats. The settings on record: harmaline 30 mg/kg, doses of 1, 3 and 10 mg/kg, listed as compound of Formula (I). The text has this: Each of six groups of male SD rats were subjected to a tremor assessment, followed by three ADL-like measures including open field test, rotarod test, and wire grip test after receiving doses of either vehicle, Formula (I), or propranolol, followed by either saline or harmaline, as outlined below in Table 22 below. Twenty minutes after administration of harmaline or saline, the rats were subjected to a tremor assessment using the score criteria outlined in the table below.

For assay [2], the system named is harmaline-induced motor impairment in male SD rats. Kind of assay: Wire grip test with harmaline in SD rats. Conditions: harmaline 30 mg/kg, dose of 1, 3 and 10 mg/kg. An excerpt:
(§1) Each of six groups of male SD rats were subjected to a tremor assessment, followed by three ADL-like measures including open field test, rotarod test, and wire grip test after receiving doses of either vehicle, Formula (I), or propranolol, followed by either saline or harmaline, as outlined below in Table 22 below.
Fifteen minutes after the rotarod test, rats were subjected to a wire grip test using an 80 cm long and 7 mm in diameter wire placed at a height of 50 cm.

Assay [3] has as its system harmaline-induced decrease in travelling distance in male SD rats. Kind of assay: Open field test with harmaline in SD rats. Conditions: harmaline 30 mg/kg, dose of 3 and 10 mg/kg. On the procedure:
as §1
Fifteen minutes after the tremor assessment, the rats were subjected to an open field test. FIG. 8 is a bar graph showing the traveling distance in 0-5 minutes (mm) measured in rats that were administered 30 mg/kg harmaline and also administered 10 mg/kg propranolol or 1 mg/kg, 3 mg/kg or 10 mg/kg study drug.

Where [4] appears, read: listed as compound of Formula (I).

Each structure is given as a SMILES string. “Also recorded” adds a separate entry of the source.

On to `CC(C)(C)NC(=O)CN1CCC(CNC(=O)c2cc(F)cc(Cl)c2)CC1.Cl` [Study drug], for which the “average tremor score vs vehicle and harmaline only” value in assay [1] is given as “significantly reduced; also recorded: significant inhibition”. The figures for the “latency to fall in wire grip test vs vehicle and harmaline only” value in assay [2] (listed as Formula (I)) and in assay [2] (setting [4]) were “significantly attenuated” and “significantly attenuated decrease in fall off latency”, respectively. Also, the “travelling distance in 0-5 minutes in open field vs vehicle and harmaline only” value in assay [3] (listed as Formula (I)) is “significantly attenuated”; in assay [3] (setting [4]), “significantly attenuated decrease”.
